Activity data for 1 molecule are collected here from ChEMBL document CHEMBL1149609, “Synthesis and evaluation of human T cell stimulating activity of an alpha-sulfatide analogue” (Bioorg Med Chem, 2007).

Activity calls are given as the source filed them. No cut-off for these calls is given here.

Common to all, as to type: functional
The species named for experiment [1] is Homo sapiens. In words: Stimulation of CD1d-restricted iNKTcell clone BGA01 assessed as gammaIFN release after 48 hrs by ELISA. For orientation: ELISA stands for enzyme-linked immunosorbent assay.
Experiment [2] is filed under the species Homo sapiens. The experiment in a line: Stimulation of sulfatide-specific CD1a-restricted Tcell clone K34B9.1 assessed as IL4 release after 48 hrs by ELISA.
Experiment [3] is filed under the species Homo sapiens. The experiment in a line: Stimulation of CD1d-restricted iNKTcell clone BGA89 assessed as IL4 release after 48 hrs by ELISA.
For experiment [4], the species on record is Homo sapiens. The experiment in a line: Stimulation of sulfatide-specific CD1a-restricted Tcell clone K34B9.1 assessed as gammaIFN release after 48 hrs by ELISA.
The species entered for experiment [5] is Homo sapiens. In words: Stimulation of CD1d-restricted iNKTcell clone BGA01 assessed as IL4 release after 48 hrs by ELISA.
Experiment [6] is filed under the species Homo sapiens. The experiment in a line: Stimulation of CD1d-restricted iNKTcell clone BGA89 assessed as gammaIFN release after 48 hrs by ELISA.

As to `CCCCCCCCCCCCC/C=C/[C@@H](O)[C@H](CO[C@H]1O[C@H](CO)[C@H](O)[C@H](OS(=O)(=O)O)[C@H]1O)NC(=O)CCCCCCCCCCCCCCCCCCCCC`, the result in experiment [1], in experiment [3], in experiment [5] and in experiment [6] was Active. Further, the result in experiment [2] and in experiment [4] was inactive.
